Assay [1] concerns the target T1, 17-beta-hydroxysteroid dehydrogenase type 3 (Homo sapiens, UniProt P37058).
T1 sequence (P37058 whole entry): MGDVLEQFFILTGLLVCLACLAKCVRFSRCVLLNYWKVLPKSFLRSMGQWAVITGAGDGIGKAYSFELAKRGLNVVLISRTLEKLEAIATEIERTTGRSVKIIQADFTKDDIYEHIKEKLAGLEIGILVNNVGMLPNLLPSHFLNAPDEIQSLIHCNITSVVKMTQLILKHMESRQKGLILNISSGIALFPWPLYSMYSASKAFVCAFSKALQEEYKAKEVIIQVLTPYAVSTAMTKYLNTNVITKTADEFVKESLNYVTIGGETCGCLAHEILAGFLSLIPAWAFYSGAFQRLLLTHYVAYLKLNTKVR
The assay is described as follows: Inhibition of human 17beta-HSD3 expressed in HeLa cells assessed as conversion of 4-androstene-3,17-dione to testosterone. Format: cell-based.

Assay [2] addresses T2, Glucocorticoid receptor (Homo sapiens) (UniProt P04150).
T2 sequence (whole entry): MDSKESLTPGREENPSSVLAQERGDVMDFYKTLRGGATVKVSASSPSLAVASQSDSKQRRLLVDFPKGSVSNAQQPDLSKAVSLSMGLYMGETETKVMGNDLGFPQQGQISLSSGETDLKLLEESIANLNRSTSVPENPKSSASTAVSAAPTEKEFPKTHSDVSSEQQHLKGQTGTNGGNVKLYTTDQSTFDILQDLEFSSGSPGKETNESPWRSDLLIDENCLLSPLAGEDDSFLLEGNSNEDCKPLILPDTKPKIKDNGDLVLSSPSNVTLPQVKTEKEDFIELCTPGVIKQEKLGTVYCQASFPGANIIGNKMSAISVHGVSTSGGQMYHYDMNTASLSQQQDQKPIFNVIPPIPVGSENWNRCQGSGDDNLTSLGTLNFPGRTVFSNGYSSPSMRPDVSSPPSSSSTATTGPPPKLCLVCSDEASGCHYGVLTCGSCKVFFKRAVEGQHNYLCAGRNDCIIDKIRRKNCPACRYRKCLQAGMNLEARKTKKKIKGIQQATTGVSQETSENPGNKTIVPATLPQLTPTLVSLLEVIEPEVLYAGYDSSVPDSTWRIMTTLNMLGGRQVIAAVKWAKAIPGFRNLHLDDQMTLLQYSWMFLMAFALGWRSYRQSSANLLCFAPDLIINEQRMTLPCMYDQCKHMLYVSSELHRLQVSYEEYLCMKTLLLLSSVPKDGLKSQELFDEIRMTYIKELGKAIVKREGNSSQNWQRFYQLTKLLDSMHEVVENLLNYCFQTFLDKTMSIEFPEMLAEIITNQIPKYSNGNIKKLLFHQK
Put plainly: Antagonist activity at glucocorticoid receptor by transcriptional reporter gene assay. Format: functional. (In general: In a reporter assay the amount or activity of a reporter protein is the signal.)

The target of assay [3] is T3, Androgen receptor (Homo sapiens) (UniProt P10275).
T3 sequence (whole entry): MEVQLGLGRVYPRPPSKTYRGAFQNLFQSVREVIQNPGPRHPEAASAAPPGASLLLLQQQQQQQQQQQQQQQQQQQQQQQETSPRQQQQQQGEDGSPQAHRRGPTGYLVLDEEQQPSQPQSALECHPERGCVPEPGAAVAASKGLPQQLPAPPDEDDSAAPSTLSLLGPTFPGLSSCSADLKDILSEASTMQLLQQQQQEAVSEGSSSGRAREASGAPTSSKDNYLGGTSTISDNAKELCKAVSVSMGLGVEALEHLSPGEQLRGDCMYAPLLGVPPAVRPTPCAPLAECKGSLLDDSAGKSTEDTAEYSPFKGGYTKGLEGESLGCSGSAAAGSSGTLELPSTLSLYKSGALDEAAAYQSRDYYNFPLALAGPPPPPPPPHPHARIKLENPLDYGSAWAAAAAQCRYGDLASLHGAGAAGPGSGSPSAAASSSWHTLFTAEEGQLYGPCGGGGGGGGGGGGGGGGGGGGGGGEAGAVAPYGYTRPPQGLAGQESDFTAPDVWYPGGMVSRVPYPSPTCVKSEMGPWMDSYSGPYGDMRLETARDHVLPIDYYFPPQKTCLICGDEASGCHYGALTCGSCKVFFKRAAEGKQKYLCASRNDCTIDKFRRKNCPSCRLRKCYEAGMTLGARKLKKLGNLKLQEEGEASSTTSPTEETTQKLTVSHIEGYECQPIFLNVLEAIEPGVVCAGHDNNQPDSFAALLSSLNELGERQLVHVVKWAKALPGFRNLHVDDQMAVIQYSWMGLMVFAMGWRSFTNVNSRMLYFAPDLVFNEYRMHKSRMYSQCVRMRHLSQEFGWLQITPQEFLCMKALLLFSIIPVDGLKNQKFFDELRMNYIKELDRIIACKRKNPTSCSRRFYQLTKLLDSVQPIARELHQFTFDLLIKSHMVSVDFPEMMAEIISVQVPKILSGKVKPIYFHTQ
Put plainly: Agonist activity at androgen receptor by transcriptional reporter gene assay. Format: functional.

Assay [4] has as its target T4, 17-beta-hydroxysteroid dehydrogenase type 3 (Homo sapiens) (UniProt P37058).
T4 sequence (whole entry): T1 sequence (P37058 whole entry)
The conditions noted are these: HeLa, 10 uM.
Description: Inhibition of human 17beta-HSD3 activity expressed in HeLa cells assessed as conversion of 4-androstene-3,17-dione to testosterone at 10 uM

The target of assay [5] is T5, 17-beta-hydroxysteroid dehydrogenase type 3 (Mus musculus, UniProt P70385).
T5 sequence (P70385 whole entry): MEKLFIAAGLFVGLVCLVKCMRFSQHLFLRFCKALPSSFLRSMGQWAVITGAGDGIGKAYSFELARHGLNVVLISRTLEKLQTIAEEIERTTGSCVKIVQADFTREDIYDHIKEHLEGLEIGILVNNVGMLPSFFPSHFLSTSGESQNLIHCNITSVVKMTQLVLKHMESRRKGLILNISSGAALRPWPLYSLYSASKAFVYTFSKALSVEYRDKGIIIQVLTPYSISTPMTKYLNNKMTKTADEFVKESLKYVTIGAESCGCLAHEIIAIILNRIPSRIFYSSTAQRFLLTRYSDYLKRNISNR
The assay is described as follows: Inhibition of 17beta-HSD3 in mouse testes homogenate. It is filed as tissue-based, Testis.

Assay [6] concerns the target T6, 17-beta-hydroxysteroid dehydrogenase type 2 (Homo sapiens) (UniProt P37059).
T6 sequence (whole entry): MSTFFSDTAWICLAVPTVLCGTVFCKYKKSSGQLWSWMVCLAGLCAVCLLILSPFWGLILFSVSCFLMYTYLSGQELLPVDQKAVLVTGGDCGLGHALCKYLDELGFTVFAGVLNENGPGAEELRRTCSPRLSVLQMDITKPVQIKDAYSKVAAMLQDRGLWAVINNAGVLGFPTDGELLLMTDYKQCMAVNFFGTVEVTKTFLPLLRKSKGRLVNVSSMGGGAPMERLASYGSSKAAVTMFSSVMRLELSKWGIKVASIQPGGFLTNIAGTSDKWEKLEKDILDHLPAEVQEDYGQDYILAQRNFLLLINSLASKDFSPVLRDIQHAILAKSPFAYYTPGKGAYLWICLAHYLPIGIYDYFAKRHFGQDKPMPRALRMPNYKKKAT
Put plainly: Inhibition of 17beta-HSD2 expressed in HeLa cells assessed as conversion of estrone into estradiol. Format: cell-based.

Assay [7] can be described thus: Inhibition of 17beta-HSD3 in marmoset testes homogenate. It is filed as tissue-based, Callitrichinae sp., Testis.
Assay [8] deals with T3, Androgen receptor (Homo sapiens). Put plainly: Antagonist activity at androgen receptor by transcriptional reporter gene assay. It is filed as functional.
The target of assay [9] is T7, Estrogen receptor (Homo sapiens) (UniProt P03372).
T7 sequence (whole entry): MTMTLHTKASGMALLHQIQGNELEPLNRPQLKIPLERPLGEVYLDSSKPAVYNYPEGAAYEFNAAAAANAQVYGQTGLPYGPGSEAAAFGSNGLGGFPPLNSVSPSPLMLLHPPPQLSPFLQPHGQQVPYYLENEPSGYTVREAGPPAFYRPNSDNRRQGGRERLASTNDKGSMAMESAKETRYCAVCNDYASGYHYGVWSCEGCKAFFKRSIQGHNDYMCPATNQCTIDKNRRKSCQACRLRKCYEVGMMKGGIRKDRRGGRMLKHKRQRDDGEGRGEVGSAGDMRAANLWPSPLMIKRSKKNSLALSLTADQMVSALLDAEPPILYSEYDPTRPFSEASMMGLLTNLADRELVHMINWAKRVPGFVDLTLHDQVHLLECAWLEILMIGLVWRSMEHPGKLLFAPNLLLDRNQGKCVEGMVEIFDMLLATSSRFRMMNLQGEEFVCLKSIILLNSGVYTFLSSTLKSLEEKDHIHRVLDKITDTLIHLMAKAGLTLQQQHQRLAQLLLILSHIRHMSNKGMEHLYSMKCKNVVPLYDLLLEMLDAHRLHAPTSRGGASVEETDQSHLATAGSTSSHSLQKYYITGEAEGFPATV
Put plainly: Agonist activity at ERalpha by transcriptional reporter gene assay. Format: functional.

The target of assay [10] is T8, 17-beta-hydroxysteroid dehydrogenase type 1 (Homo sapiens) (UniProt P14061).
T8 sequence (whole entry): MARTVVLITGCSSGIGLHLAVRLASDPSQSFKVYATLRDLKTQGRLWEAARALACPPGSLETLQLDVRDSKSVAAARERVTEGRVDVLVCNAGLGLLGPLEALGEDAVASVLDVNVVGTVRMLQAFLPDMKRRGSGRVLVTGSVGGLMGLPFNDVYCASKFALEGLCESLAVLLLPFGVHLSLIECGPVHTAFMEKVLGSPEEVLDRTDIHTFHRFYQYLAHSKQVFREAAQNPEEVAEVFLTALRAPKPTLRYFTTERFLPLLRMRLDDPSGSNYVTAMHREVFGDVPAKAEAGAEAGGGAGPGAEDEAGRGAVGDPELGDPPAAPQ
The assay is described as follows: Inhibition of 17beta-HSD1 expressed in HeLa cells assessed as conversion of estrone into estradiol. It is filed as cell-based.

The target of assay [11] is T7, Estrogen receptor (Homo sapiens). The assay is described as follows: Antagonist activity at ERalpha by transcriptional reporter gene assay. Format: functional.
For assay [12], the target named is T2, Glucocorticoid receptor (Homo sapiens). The assay is described as follows: Agonist activity at glucocorticoid receptor by transcriptional reporter gene assay. Format: functional.
For assay [13], the target named is T1, 17-beta-hydroxysteroid dehydrogenase type 3. The assay is described as follows: Inhibition of 17beta-HSD3 in human testes homogenate. It is filed as tissue-based, Testis.

Active and inactive are the calls of the source. The calls are words filed in the database; no cut-off is given here.

One may read the IC50 as the concentration that inhibits the measured activity by half. With `COc1ccc(N2C/C(=C/c3ccc(O)c(Br)c3)OC2=O)cc1`, the IC50 in assay [1] (read-out: IC50) came out at 670 nM.
On the same count and under the same terms, with `COc1ccc(N2C(=O)S/C(=C\c3ccc(O)c(Br)c3)C2=O)cc1` the figure was 90 nM.
By inhibition is commonly meant how much of the control response was suppressed. Regarding `COc1ccc(N2C(=O)/C(=C/c3ccc(O)c(Br)c3)SC2=S)cc1`, the outcome in [2], in assay [3], in assay [8], in assay [9], in assay [11] and in assay [12] was inactive. The inhibition in assay [4] turned out to be 23%. Also, the IC50 stood at 40 nM in assay [5], 0.6 nM in assay [7], 14 nM in assay [1] (read-out: IC50) and 6 nM in [13]. Moreover, the inhibition entry in assay [6] and in assay [10] was “inactive” in each case.
Take `COc1ccc(-n2cnn(Cc3ccc(O)c(Br)c3)c2=O)cc1`: in [1] (read-out: IC50), the concentration for half-maximal inhibition (IC50) worked out at 5700 nM.
Regarding `COc1ccc(N2C(=O)N/C(=C\c3ccc(O)c(Br)c3)C2=O)cc1`, in assay [1] (hela), the IC50 result is “Not Active”.
Turning to `COc1ccc(N2C(=O)O/C(=C\c3ccc(O)c(Br)c3)C2=O)cc1`, in assay [1] (read-out: IC50), the IC50 came to 23 nM.
`COc1ccc(-n2cc(Cc3ccc(O)c(Br)c3)sc2=O)cc1`: in assay [1] (read-out: IC50), the half-maximal inhibitory concentration (IC50) was 570 nM.
On the same count and under the same terms, then `COc1ccc(N2C(=O)/C(=C/c3ccc(O)c(Br)c3)OC2=S)cc1`, with 13 nM.
With `COc1ccc(N2C(=O)/C(=C/c3ccc(O)c(Br)c3)N(C)C2=O)cc1`, in assay [1] (hela), the IC50 result was “Not Active”.
In the case of `COc1ccc(N2C(=O)OC(Cc3ccc(O)c(Br)c3)C2=O)cc1` (configuration not stated), the IC50 in assay [1] (read-out: IC50) was 300 nM.

Values taken from ChEMBL document CHEMBL1932997, “Identification of oxazolidinediones and thiazolidinediones as potent 17β-hydroxysteroid dehydrogenase type 3 inhibitors” (Bioorg Med Chem Lett, 2012).
